Laboratory results taken from patent publication US11053204B2, “Pyrimidinyloxy benzene derivatives as herbicides” (FMC Corporation, priority 2015, dated 2021).

Key:
Assay type in all cases: in vivo
[1] = system: kochia (Kochia scoparia); assay: Test A preemergence, visual injury rating
Outline: (§1)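 Greenhouse pot test, loam/sand soil. Formulation: non-phytotoxic solvent mix plus surfactant. Pre: directed spray onto soil after sowing. Post: plants at 1–2 leaf, 2–10 cm. Rated visually vs untreated controls at ~10 d, 0 (no effect) to 100 (complete control).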

[2] = system: giant foxtail (Setaria faberii); assay: Test A preemergence, visual injury rating
Outline: as §1

[3] = system: pigweed (Amaranthus retroflexus); assay: Test A preemergence, visual injury rating
Outline: as §1

[4] = system: barnyardgrass (Echinochloa crus-galli); assay: Test A preemergence, visual injury rating; settings: for Plant response rating, Barnyardgrass: 31 g ai/ha, 0 to 100 scale, 0 no effect, 100 complete control; for Barnyardgrass plant response rating: 125 g ai/ha, 0 to 100 scale (0 no effect, 100 complete control)
Outline: as §1

[5] = system: ragweed (common ragweed, Ambrosia elatior); assay: Test A preemergence, visual injury rating
Outline: as §1

[6] = system: Italian ryegrass (Lolium multiflorum); assay: Test A preemergence, visual injury rating
Outline: as §1

[7] = system: kochia (Kochia scoparia); assay: Test A postemergence, visual injury rating; settings: 0 to 100 scale, 0 is no effect, 100 is complete control, approximately 10 days
Outline: as §1

[8] = system: giant foxtail (Setaria faberii); assay: Test A postemergence, visual injury rating; settings: 0 to 100 scale, 0 is no effect, 100 is complete control, approximately 10 days
Outline: as §1

[9] = system: galium (catchweed bedstraw, Galium aparine); assay: Test A postemergence, visual injury rating; settings: 0 to 100 scale, 0 is no effect, 100 is complete control, approximately 10 days
Outline: as §1

[10] = system: pigweed (Amaranthus retroflexus); assay: Test A postemergence, visual injury rating; settings: 0 to 100 scale, 0 is no effect, 100 is complete control, approximately 10 days
Outline: as §1

[11] = system: wheat (Triticum aestivum); assay: Test A postemergence, visual injury rating; settings: 0 to 100 scale, 0 is no effect, 100 is complete control, approximately 10 days
Outline: as §1

[12] = system: barnyardgrass (Echinochloa crus-galli); assay: Test A postemergence, visual injury rating; settings: 0 to 100 scale, 0 is no effect, 100 is complete control, approximately 10 days
Outline: as §1

[13] = system: ragweed (common ragweed, Ambrosia elatior); assay: Test A postemergence, visual injury rating; settings: 0 to 100 scale, 0 is no effect, 100 is complete control, approximately 10 days
Outline: as §1

[14] = system: Italian ryegrass (Lolium multiflorum); assay: Test A postemergence, visual injury rating; settings: 0 to 100 scale, 0 is no effect, 100 is complete control, approximately 10 days
Outline: as §1

[15] = system: corn (Zea mays); assay: Test A postemergence, visual injury rating; settings: 0 to 100 scale, 0 is no effect, 100 is complete control, approximately 10 days
Outline: as §1

[16] = system: blackgrass (Alopecurus myosuroides); assay: Test A postemergence, visual injury rating; settings: 0 to 100 scale, 0 is no effect, 100 is complete control, approximately 10 days
Outline: as §1

[17] = system: ducksalad (Heteranthera limosa); assay: Test B flooded paddy test, plant response rating; settings: 250 g ai/ha; Flood; scale of 0 to 100 where 0 is no effect and 100 is complete control; 13 to 15 days
Outline: (§2)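 Visual injury ratings against untreated controls, taken 13 to 15 days after compound was added to paddy water standing 3 cm above the soil.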

[18] = system: rice (Oryza sativa); assay: Test B flooded paddy test, plant response rating; settings: 250 g ai/ha; Flood; scale of 0 to 100 where 0 is no effect and 100 is complete control; 13 to 15 days
Outline: as §2

[19] = system: barnyardgrass (Echinochloa crus-galli); assay: Test B flooded paddy test, plant response rating; settings: 250 g ai/ha; Flood; scale of 0 to 100 where 0 is no effect and 100 is complete control; 13 to 15 days
Outline: as §2

[20] = system: sedge, umbrella (small-flower umbrella sedge, Cyperus difformis); assay: Test B flooded paddy test, plant response rating; settings: 250 g ai/ha; Flood; scale of 0 to 100 where 0 is no effect and 100 is complete control; 13 to 15 days
Outline: as §2

[21] = 31 g ai/ha, 0 to 100 scale, 0 no effect, 100 complete control
[22] = 125 g ai/ha, 0 to 100 scale (0 no effect, 100 complete control)

SMILES | Plant response rating, Kochia [1, 21] | Plant response rating, Kochia [1, 22] | Plant response rating, Foxtail, Giant [2, 21] | Plant response rating, Foxtail, Giant [2, 22] | Plant response rating, Pigweed [3, 21] | Plant response rating, Pigweed [3, 22] | Plant response rating, Barnyardgrass [4] | Barnyardgrass plant response rating [4] | Plant response rating, Ragweed [5, 21] | Plant response rating, Ragweed [5, 22] | Plant response rating, Ryegrass, Italian [6, 21] | Plant response rating, Ryegrass, Italian [6, 22] | Kochia plant response rating ([7]; 31 g ai/ha) | Kochia plant response rating ([7]; 125 g ai/ha) | Foxtail, Giant plant response rating ([8]; 31 g ai/ha) | Foxtail, Giant plant response rating ([8]; 125 g ai/ha) | Galium plant response rating ([9]; 31 g ai/ha) | Galium plant response rating ([9]; 125 g ai/ha) | Pigweed plant response rating ([10]; 31 g ai/ha) | Pigweed plant response rating ([10]; 125 g ai/ha) | also measured
CC(=NOCCC(F)(F)F)c1c(Br)cccc1Oc1ncc(Cl)cn1 [Compound 98] | 0 | 0 | 0 | 40 | 0 | 0 | 0 | 30 | 0 | 0 | 0 | 0 | 0 | 0 | 0 | 20 | 10 | 50 | 30 | 90 | Wheat plant response rating ([11]; 31 g ai/ha): 0; Wheat plant response rating ([11]; 125 g ai/ha): 10; Barnyardgrass plant response rating ([12]; 31 g ai/ha): 0; Barnyardgrass plant response rating ([12]; 125 g ai/ha): 10; Ragweed plant response rating ([13]; 31 g ai/ha): 0; Ragweed plant response rating ([13]; 125 g ai/ha): 10; Ryegrass, Italian plant response rating ([14]; 31 g ai/ha): 0; Ryegrass, Italian plant response rating ([14]; 125 g ai/ha): 0; Corn plant response rating ([15]; 31 g ai/ha): 0; Corn plant response rating ([15]; 125 g ai/ha): 10; Blackgrass plant response rating ([16]; 31 g ai/ha): 0; Blackgrass plant response rating ([16]; 125 g ai/ha): 10; Plant response rating, Ducksalad [17]: 0; Plant response rating, Rice [18]: 0; Plant response rating, Barnyardgrass [19]: 0; Plant response rating, Sedge, Umbrella [20]: 0
Cc1cccc(Oc2ncc(Cl)cn2)c1C(=O)OCCC(F)(F)F [Compound 99] | 40 | 80 | 90 | 100 | 50 | 90 | 70 | 100 | 0 | 10 | 0 | 30 | 20 | 40 | 50 | 90 | 20 | 70 | 10 | 40 | Wheat plant response rating ([11]; 31 g ai/ha): 0; Wheat plant response rating ([11]; 125 g ai/ha): 30; Barnyardgrass plant response rating ([12]; 31 g ai/ha): 30; Barnyardgrass plant response rating ([12]; 125 g ai/ha): 80; Ragweed plant response rating ([13]; 31 g ai/ha): 10; Ragweed plant response rating ([13]; 125 g ai/ha): 30; Ryegrass, Italian plant response rating ([14]; 31 g ai/ha): 0; Ryegrass, Italian plant response rating ([14]; 125 g ai/ha): 50; Corn plant response rating ([15]; 31 g ai/ha): 0; Corn plant response rating ([15]; 125 g ai/ha): 50; Blackgrass plant response rating ([16]; 31 g ai/ha): 30; Blackgrass plant response rating ([16]; 125 g ai/ha): 80; Plant response rating, Ducksalad [17]: 100; Plant response rating, Rice [18]: 40; Plant response rating, Barnyardgrass [19]: 60; Plant response rating, Sedge, Umbrella [20]: 90
CCCCOC(=O)c1c(Br)cccc1Oc1ncc(Cl)cn1 [Compound 100] | 0 | 0 | 50 | 100 | 0 | 60 | 40 | 100 | 0 | 0 | 0 | 0 | 60 | 80 | 20 | 70 | 20 | 70 | 30 | 70 | Wheat plant response rating ([11]; 31 g ai/ha): 0; Wheat plant response rating ([11]; 125 g ai/ha): 0; Barnyardgrass plant response rating ([12]; 31 g ai/ha): 10; Barnyardgrass plant response rating ([12]; 125 g ai/ha): 50; Ragweed plant response rating ([13]; 31 g ai/ha): 0; Ragweed plant response rating ([13]; 125 g ai/ha): 0; Ryegrass, Italian plant response rating ([14]; 31 g ai/ha): 0; Ryegrass, Italian plant response rating ([14]; 125 g ai/ha): 20; Corn plant response rating ([15]; 31 g ai/ha): 10; Corn plant response rating ([15]; 125 g ai/ha): 10; Blackgrass plant response rating ([16]; 31 g ai/ha): 0; Blackgrass plant response rating ([16]; 125 g ai/ha): 40; Plant response rating, Ducksalad [17]: 90; Plant response rating, Rice [18]: 0; Plant response rating, Barnyardgrass [19]: 40; Plant response rating, Sedge, Umbrella [20]: 70
CCCCCOC(=O)c1c(Br)cccc1Oc1ncc(Cl)cn1 [Compound 101] | 0 | 0 | 0 | 40 | 0 | 0 | 0 | 10 | 0 | 0 | 0 | 0 | 0 | 20 | 0 | 20 | 10 | 40 | 20 | 60 | Wheat plant response rating ([11]; 31 g ai/ha): 0; Wheat plant response rating ([11]; 125 g ai/ha): 0; Barnyardgrass plant response rating ([12]; 31 g ai/ha): 10; Barnyardgrass plant response rating ([12]; 125 g ai/ha): 20; Ragweed plant response rating ([13]; 31 g ai/ha): 0; Ragweed plant response rating ([13]; 125 g ai/ha): 0; Ryegrass, Italian plant response rating ([14]; 31 g ai/ha): 0; Ryegrass, Italian plant response rating ([14]; 125 g ai/ha): 10; Corn plant response rating ([15]; 31 g ai/ha): 0; Corn plant response rating ([15]; 125 g ai/ha): 0; Blackgrass plant response rating ([16]; 31 g ai/ha): 0; Blackgrass plant response rating ([16]; 125 g ai/ha): 0; Plant response rating, Ducksalad [17]: 0; Plant response rating, Rice [18]: 0; Plant response rating, Barnyardgrass [19]: 0; Plant response rating, Sedge, Umbrella [20]: 0
O=C(OCC(F)(F)C(F)F)c1c(Br)cccc1Oc1ncc(Cl)cn1 [Compound 103] | 0 | 70 | 10 | 60 | 40 | 100 | 0 | 50 | 0 | 0 | 0 | 0 | 70 | 100 | 10 | 70 | 70 | 100 | 90 | 100 | Wheat plant response rating ([11]; 31 g ai/ha): 0; Wheat plant response rating ([11]; 125 g ai/ha): 0; Barnyardgrass plant response rating ([12]; 31 g ai/ha): 0; Barnyardgrass plant response rating ([12]; 125 g ai/ha): 30; Ragweed plant response rating ([13]; 31 g ai/ha): 0; Ragweed plant response rating ([13]; 125 g ai/ha): 0; Ryegrass, Italian plant response rating ([14]; 31 g ai/ha): 0; Ryegrass, Italian plant response rating ([14]; 125 g ai/ha): 0; Corn plant response rating ([15]; 31 g ai/ha): 20; Corn plant response rating ([15]; 125 g ai/ha): 20; Blackgrass plant response rating ([16]; 31 g ai/ha): 0; Blackgrass plant response rating ([16]; 125 g ai/ha): 10; Plant response rating, Ducksalad [17]: 95; Plant response rating, Rice [18]: 20; Plant response rating, Barnyardgrass [19]: 0; Plant response rating, Sedge, Umbrella [20]: 95
